Read-outs that look alike come from different tables or passages of the source.
What was measured:
[1] = test system: DLD1-WRN-KO cells; assay: Proliferation assay DLD1-WRN-KO (CellTiterGlo, 96 hours; off-target effects); conditions: read-out: Proliferation Assay DLD1-WRN-KO (GI50)
[2] = test system: SW48 cells; assay: Proliferation assay SW48 (CellTiterGlo, 96 hours)
[3] = biological target: WRN helicase (Homo sapiens (Human), UniProt Q14191); assay: In vitro enzymatic activity assay on WRN helicase (DNA dependent ATPase assay, ADP-Glo); assay type: biochemical; conditions: geometric means of at least 2 determinations; read-out: WRN ATPase Activity (IC50)
Sequence of WRN helicase (Q14191 517-1238): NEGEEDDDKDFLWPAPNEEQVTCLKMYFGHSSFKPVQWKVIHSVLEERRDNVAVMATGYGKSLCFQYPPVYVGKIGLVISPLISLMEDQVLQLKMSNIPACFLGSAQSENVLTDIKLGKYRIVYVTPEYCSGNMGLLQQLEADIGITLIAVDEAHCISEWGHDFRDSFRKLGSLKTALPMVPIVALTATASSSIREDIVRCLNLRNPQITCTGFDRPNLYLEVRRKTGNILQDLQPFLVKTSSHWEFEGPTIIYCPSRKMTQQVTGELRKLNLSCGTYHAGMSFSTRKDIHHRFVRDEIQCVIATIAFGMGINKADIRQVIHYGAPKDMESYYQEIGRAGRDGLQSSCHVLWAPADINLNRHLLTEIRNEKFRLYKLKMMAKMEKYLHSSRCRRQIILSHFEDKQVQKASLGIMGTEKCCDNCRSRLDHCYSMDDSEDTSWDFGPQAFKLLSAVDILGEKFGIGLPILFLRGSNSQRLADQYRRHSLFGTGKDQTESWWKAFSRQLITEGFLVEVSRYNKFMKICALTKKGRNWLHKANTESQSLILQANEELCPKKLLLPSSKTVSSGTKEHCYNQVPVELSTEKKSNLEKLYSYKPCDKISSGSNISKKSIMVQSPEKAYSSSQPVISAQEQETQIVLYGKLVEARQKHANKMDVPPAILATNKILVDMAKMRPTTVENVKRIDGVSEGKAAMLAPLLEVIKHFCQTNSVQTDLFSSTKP
Outline: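 The WRN helicase core (aa N517-P1238), 10 nM, hydrolysed 300 µM ATP in the presence of 0.2 nM FLAP26 DNA (Tris pH 7.5, 2 mM MgCl2, 50 mM NaCl) for 30 min at room temperature. ADP formed was quantified by ADP-Glo luminescence.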

[4] = Homo sapiens, SW48, read-out: Proliferation Assay SW48 (GI50)

Row | SMILES | GI50 ([1]; Homo sapiens) [nM] | GI50 [2, 4] [nM] | IC50 [3] [nM] | GI50 ([1]; DLD1-WRN-KO cell line, geometric means of at least 2 determinations) [nM] | GI50 ([2]; read-out: Proliferation Assay SW48 (GI50), SW48 cell line, geometric means of at least 2 determinations) [nM]
1 | CCc1c(N2CCN(C(=O)c3ncc(Cl)cc3O)CC2)c(=O)n2nc(C3=CCOCC3)nc2n1CC(=O)Nc1ccc(C(F)(F)F)cc1C [Example 65, 2-(6-(4-(5-chloro-3-hydroxypicolinoyl)piperazin-1-yl)-2-(3,6-dihydro-2H-pyran-4-yl)-5-ethyl-7-oxo-[1,2,4]triazolo[1,5-a]pyrimidin-4(7H)-yl)-N-(2-methyl-4-(trifluoromethyl)phenyl)acetamide] | 7800 | 80 | 50 | – | –
2 | CCc1c(N2CCN(C(=O)c3ncccc3O)CC2)c(=O)n2nc(N3CCC[C@@H](F)C3)nc2n1CC(=O)Nc1ccc(C(F)(F)F)cc1C [Example 14a, (R)-2-(5-ethyl-2-(3-fluoropiperidin-1-yl)-6-(4-(3-hydroxypicolinoyl)piperazin-1-yl)-7-oxo-[1,2,4]triazolo[1,5-a]pyrimidin-4(7H)-yl)-N-(2-methyl-4-(trifluoromethyl)phenyl)acetamide] | > 10000 | 370 | 80 | – | –
3 | CCc1c(N2CCN(C(=O)c3nccc(F)c3O)CC2)c(=O)n2nc(C3=CCOCC3)nc2n1CC(=O)Nc1ccc(C(F)(F)F)nc1Cl [Example 48, N-(2-chloro-6-(trifluoromethyl)pyridin-3-yl)-2-(2-(3,6-dihydro-2H-pyran-4-yl)-5-ethyl-6-(4-(4-fluoro-3-hydroxypicolinoyl)piperazin-1-yl)-7-oxo-[1,2,4]triazolo[1,5-a]pyrimidin-4(7H)-yl)acetamide] | > 10000 | 80 | 70 | – | –
4 | CCc1c(N2CCN(C(=O)c3ncccc3O)CC2)c(=O)n2nc(C3=CCOCC3)nc2n1CC(=O)Nc1cc(F)c(C(F)(F)F)cc1Cl [Example 116, N-(2-chloro-5-fluoro-4-(trifluoromethyl)phenyl)-2-(2-(3,6-dihydro-2H-pyran-4-yl)-5-ethyl-6-(4-(3-hydroxypicolinoyl)piperazin-1-yl)-7-oxo-[1,2,4]triazolo[1,5-a]pyrimidin-4(7H)-yl)acetamide] | 6600 | 80 | 60 | – | –
5 | CCc1c(N2CCN(C(=O)c3ncnc(C)c3O)CC2)c(=O)n2nc(C3=CCCCO3)nc2n1CC(=O)Nc1ccc(C(F)(F)F)nc1Cl [Example 28, N-(2-chloro-6-(trifluoromethyl)pyridin-3-yl)-2-(2-(3,4-dihydro-2H-pyran-6-yl)-5-ethyl-6-(4-(5-hydroxy-6-methylpyrimidine-4-carbonyl)piperazin-1-yl)-7-oxo-[1,2,4]triazolo[1,5-a]pyrimidin-4(7H)-yl)acetamide] | > 10000 | 100 | 130 | – | –
6 | CCc1c(N2CCN(C(=O)c3ncccc3O)CC2)c(=O)n2nc(C3=CCCCO3)nc2n1CC(=O)Nc1ccc(C(F)(F)F)nc1Cl [Example 29, N-(2-chloro-6-(trifluoromethyl)pyridin-3-yl)-2-(2-(3,4-dihydro-2H-pyran-6-yl)-5-ethyl-6-(4-(3-hydroxypicolinoyl)piperazin-1-yl)-7-oxo-[1,2,4]triazolo[1,5-a]pyrimidin-4(7H)-yl)acetamide] | > 10000 | 50 | 90 | – | –
7 | CCc1c(N2CCN(C(=O)c3ncncc3O)CC2)c(=O)n2nc(C3=CCOCC3)nc2n1CC(=O)Nc1ccc(C(F)(F)F)cc1Cl [Example 44, N-(2-chloro-4-(trifluoromethyl)phenyl)-2-(2-(3,6-dihydro-2H-pyran-4-yl)-5-ethyl-6-(4-(5-hydroxypyrimidine-4-carbonyl)piperazin-1-yl)-7-oxo-[1,2,4]triazolo[1,5-a]pyrimidin-4(7H)-yl)acetamide] | > 10000 | 80 | 110 | – | –
8 | CCc1c(N2CCN(C(=O)c3ncccc3O)CC2)c(=O)n2nc(N3CCC[C@H](F)C3)nc2n1CC(=O)Nc1ccc(C(F)(F)F)nc1Cl [Example 16b, (S)—N-(2-chloro-6-(trifluoromethyl)pyridin-3-yl)-2-(5-ethyl-2-(3-fluoropiperidin-1-yl)-6-(4-(3-hydroxypicolinoyl)piperazin-1-yl)-7-oxo-[1,2,4]triazolo[1,5-a]pyrimidin-4(7H)-yl)acetamide] | > 10000 | 230 | 180 | – | –
9 | CCc1c(N2CCN(C(=O)c3ncccc3O)CC2)c(=O)n2nc(C3=CCCCO3)nc2n1CC(=O)Nc1ccc(C(F)(F)F)nc1C [Example 55, 2-(2-(3,4-dihydro-2H-pyran-6-yl)-5-ethyl-6-(4-(3-hydroxypicolinoyl)piperazin-1-yl)-7-oxo-[1,2,4]triazolo[1,5-a]pyrimidin-4(7H)-yl)-N-(2-methyl-6-(trifluoromethyl)pyridin-3-yl)acetamide] | > 10000 | 100 | 200 | – | –
10 | CCc1c(N2CCN(C(=O)c3ncccc3O)CC2)c(=O)n2nc(C3=CCCOC3)nc2n1CC(=O)Nc1ccc(C(F)(F)F)cc1C [Example 114, 2-(2-(5,6-dihydro-2H-pyran-3-yl)-5-ethyl-6-(4-(3-hydroxypicolinoyl)piperazin-1-yl)-7-oxo-[1,2,4]triazolo[1,5-a]pyrimidin-4(7H)-yl)-N-(2-methyl-4-(trifluoromethyl)phenyl)acetamide] | > 10000 | 180 | 90 | – | –
11 | CCc1c(N2CCN(C(=O)c3ncnc(C)c3O)[C@@H]3CC[C@@H]32)c(=O)n2nc(C3=CCOCC3)nc2n1CC(=O)Nc1ccc(C(F)(F)F)cc1Cl (single isomer, unassigned) [Example 131] | – | – | 110 | > 10000 | 30
12 | CCc1c(N2CCN(C(=O)c3nccc(Cl)c3O)CC2)c(=O)n2nc(C3=COCCO3)nc2n1CC(=O)Nc1ccc(C(F)(F)F)c(F)c1C [Example 79, 2-(6-(4-(4-chloro-3-hydroxypicolinoyl)piperazin-1-yl)-2-(5,6-dihydro-1,4-dioxin-2-yl)-5-ethyl-7-oxo-[1,2,4]triazolo[1,5-a]pyrimidin-4(7H)-yl)-N-(3-fluoro-2-methyl-4-(trifluoromethyl)phenyl)acetamide] | > 10000 | 500 | 40 | – | –
13 | Cc1c(N2CCN(C(=O)c3ncccc3O)CC2)c(=O)n2nc(N3CC4CC(C3)O4)nc2n1CC(=O)Nc1ccc(C(F)(F)F)cc1F [Example 22, 2-(2-(6-oxa-3-azabicyclo[3.1.1]heptan-3-yl)-6-(4-(3-hydroxypicolinoyl)piperazin-1-yl)-5-methyl-7-oxo-[1,2,4]triazolo[1,5-a]pyrimidin-4(7H)-yl)-N-(2-fluoro-4-(trifluoromethyl)phenyl)acetamide] | > 10000 | 2630 | 600 | – | –
14 | CCc1c(N2CCN(C(=O)c3ncccc3O)CC2)c(=O)n2nc(N3CCCC3)nc2n1CC(=O)Nc1cc(Cl)c(C(F)(F)F)cc1C [Example 19, N-(5-chloro-2-methyl-4-(trifluoromethyl)phenyl)-2-(5-ethyl-6-(4-(3-hydroxypicolinoyl)piperazin-1-yl)-7-oxo-2-(pyrrolidin-1-yl)-[1,2,4]triazolo[1,5-a]pyrimidin-4(7H)-yl)acetamide] | 5000 | 110 | 90 | – | –
15 | CCc1c(N2CCN(C(=O)c3ncnc(C)c3O)CC2)c(=O)n2nc(C3=CC[C@H](F)CO3)nc2n1CC(=O)Nc1ccc(C(F)(F)F)cc1Cl [Example 127, (S)—N-(2-chloro-4-(trifluoromethyl)phenyl)-2-(5-ethyl-2-(3-fluoro-3,4-dihydro-2H-pyran-6-yl)-6-(4-(5-hydroxy-6-methylpyrimidine-4-carbonyl)piperazin-1-yl)-7-oxo-[1,2,4]triazolo[1,5-a]pyrimidin-4(7H)-yl)acetamide] | > 10000 | 90 | 80 | – | –

Source: patent US11878973B2, “Bicyclic compounds and their uses” (NOVARTIS AG, priority 2021, dated 2024)
